Values after ≈ are worked out from the molar mass of the structure shown. Where two headings read alike, the source gives them in different places.
What was measured:
MRSA and MSSA = experiment: antibacterial activity (MIC) by agar plate dilution method, MRSA and MSSA strains together; type: cell-based, Staphylococcus aureus; details: for antibacterial activity (in words): Table 2; for MIC: Staphylococcus aureus, 20 h, read-out: MIC values (text summary of Table 2)
Method: The screening of the present invention may be carried out according to the agar plate dilution method designated by the Japan Society of Chemotherapy (Chemotherapy 29(1), 76-79 (1981)). Mueller-Hinton agar base semi-synthetic medium may be used for a plate culture medium for a sensitivity test together with an inoculating bacteria solution which may be prepared by culturing bacteria to be tested at 37° C. for 20 hours diluted with 8.5% by isotonic sodium chloride solution to 10^6 CFU/ml. Diluted β-lactam solutions are prepared by two times serial dilution. 1 ml of the diluted β-lactam solution and 1 ml of a predetermined concentration of a sample to be tested are added to 8 ml of the plate culture medium for a sensitivity test. To the resultant plate culture medium for sensitivity test, the bacteria are inoculated using a microplanter (SAKUMASEISAKUSYO Co.), cultured for 20 hours at 37° C. followed by assessing for a minimum inhibition concentration (MIC). […]
Antibacterial activity is determined for flavones including flavone, flavonol, flavanone, isoflavone, catechin and calchone, as follows:
(§1) Flavones were dissolved in methanol and the others were dissolved in 0.1 N NaOH. A method for determination of antibacterial activity is, as described above, an agar plate dilution method designated by the Japan Society of Chemotherapy (Chemotherapy 29(1), 76-79 (1981)) to determine MIC value. MIC80 is a concentration at which a strain is prohibited to proliferate by 80% and MIC50 is a concentration at which a strain is prohibited to proliferate by 50%.

MRSA = experiment: antibacterial activity (MIC) by agar plate dilution method, MRSA strains; type: cell-based, methicillin-resistant Staphylococcus aureus; details: Staphylococcus aureus, 20 h
Method: (§2) The screening of the present invention may be carried out according to the agar plate dilution method designated by the Japan Society of Chemotherapy (Chemotherapy 29(1), 76-79 (1981)). Mueller-Hinton agar base semi-synthetic medium may be used for a plate culture medium for a sensitivity test together with an inoculating bacteria solution which may be prepared by culturing bacteria to be tested at 37° C. for 20 hours diluted with 8.5% by isotonic sodium chloride solution to 10^6 CFU/ml. Diluted β-lactam solutions are prepared by two times serial dilution. 1 ml of the diluted β-lactam solution and 1 ml of a predetermined concentration of a sample to be tested are added to 8 ml of the plate culture medium for a sensitivity test. To the resultant plate culture medium for sensitivity test, the bacteria are inoculated using a microplanter (SAKUMASEISAKUSYO Co.), cultured for 20 hours at 37° C. followed by assessing for a minimum inhibition concentration (MIC).
(§3) (A) Antibacterial activities of ether extract from Scutellaria barbata, SB-1 (isolated from Scutellaria barbata), apigenin (authentic sample) and luteolin (authentic sample) were shown in Table 1.
as §1

MSSA = experiment: antibacterial activity (MIC) by agar plate dilution method, MSSA strains; type: cell-based, Methicillin-sensitive Staphylooccus aureus; details: Staphylococcus aureus, 20 h
Method: as §2, §3, §1

[1] = MRSA (20 strains), read-out: MIC50
[2] = MSSA (7 strains), read-out: MIC50

In the case of `O=c1cc(-c2ccc(O)c(O)c2)oc2cc(O)cc(O)c12` [Luteolin, luteolin], the “antibacterial activity (in words)” value (MRSA and MSSA; MRSA and MSSA) is reported as “showed antibacterial activity”, the MIC50 (MRSA; MRSA) is reported as 125 µg/mL (≈ 437 µM) and the MIC (MRSA; MRSA, MRSA (20 strains), range over strains) is reported as 62.5 to 125 µg/mL (≈ 218 to 437 µM). For the same molecule, the MIC (MRSA; MRSA, MRSA strain No. 1) was 125 µg/mL (≈ 437 µM), the MIC (MRSA; MRSA, MRSA strain No. 2) was 125 µg/mL (≈ 437 µM) and the MIC (MRSA; MRSA, MRSA strain No. 3) was 125 µg/mL (≈ 437 µM). It also gave an MIC (MRSA; MRSA, MRSA strain No. 4) of 125 µg/mL (≈ 437 µM), an MIC (MRSA; MRSA, MRSA strain No. 5) of 62.5 µg/mL (≈ 218 µM) and an MIC (MRSA; MRSA, MRSA strain No. 6) of 62.5 µg/mL (≈ 218 µM). The MIC (MRSA; MRSA, MRSA strain No. 7) was 62.5 µg/mL (≈ 218 µM), the MIC (MRSA; MRSA, MRSA strain No. 8) was 62.5 µg/mL (≈ 218 µM) and the MIC (MRSA; MRSA, MRSA strain No. 9) was 62.5 µg/mL (≈ 218 µM). The MIC (MRSA; MRSA, MRSA strain No. 10) was 62.5 µg/mL (≈ 218 µM), the MIC (MRSA; MRSA, MRSA strain No. 11) was 125 µg/mL (≈ 437 µM) and the MIC (MRSA; MRSA, MRSA strain No. 12) was 125 µg/mL (≈ 437 µM). It also gave an MIC (MRSA; MRSA, MRSA strain No. 13) of 62.5 µg/mL (≈ 218 µM), an MIC (MRSA; MRSA, MRSA strain No. 14) of 125 µg/mL (≈ 437 µM) and an MIC (MRSA; MRSA, MRSA strain No. 15) of 125 µg/mL (≈ 437 µM). For the same molecule, the MIC (MRSA; MRSA, MRSA strain No. 16) was 125 µg/mL (≈ 437 µM), the MIC (MRSA; MRSA, MRSA strain No. 17) was 125 µg/mL (≈ 437 µM) and the MIC (MRSA; MRSA, MRSA strain No. 18) was 125 µg/mL (≈ 437 µM). For the same molecule, the MIC (MRSA; MRSA, MRSA strain No. 19) was 125 µg/mL (≈ 437 µM), the MIC (MRSA; MRSA, MRSA strain No. 20) was 62.5 µg/mL (≈ 218 µM) and the MIC50 (MSSA; MSSA) was 125 µg/mL (≈ 437 µM). The MIC (MSSA; MSSA, MSSA (7 strains), range over strains) was 62.5 to 125 µg/mL (≈ 218 to 437 µM), the MIC (MSSA; MSSA, MSSA strain No. 21) was 125 µg/mL (≈ 437 µM) and the MIC (MSSA; MSSA, MSSA strain No. 22) was 125 µg/mL (≈ 437 µM). For the same molecule, the MIC (MSSA; MSSA, MSSA strain No. 23) was 62.5 µg/mL (≈ 218 µM), the MIC (MSSA; MSSA, MSSA strain No. 24) was 62.5 µg/mL (≈ 218 µM) and the MIC (MSSA; MSSA, MSSA strain No. 25) was 125 µg/mL (≈ 437 µM). For the same molecule, the MIC (MSSA; MSSA, MSSA strain No. 26) was 125 µg/mL (≈ 437 µM) and the MIC (MSSA; MSSA, MSSA strain No. 27) was 62.5 µg/mL (≈ 218 µM).
With `O=C(CCc1ccc(O)cc1)c1c(O)cc(O)cc1O` [Phloretin, phloretin] the “antibacterial activity (in words)” value (MRSA and MSSA; MRSA and MSSA) was “showed activity”, the “antibacterial activity (in words)” value (MRSA and MSSA; MRSA and MSSA, listed as phioretin) was “showed antibacterial activity” and the MIC (MRSA and MSSA; MRSA and MSSA, "in each case") was 250 µg/mL (≈ 912 µM). It also gave an MIC50 (MRSA; [1]) of 250 µg/mL (≈ 912 µM), an MIC50 (MSSA; [2]) of 125 µg/mL (≈ 456 µM) and an MIC (MSSA; MSSA, MSSA (7 strains), range over strains, read-out: MIC) of 125 to 250 µg/mL (≈ 456 to 912 µM).
`O=c1c(O)c(-c2ccc(O)c(O)c2)oc2cc(O)cc(O)c12` [Quercetin, quercetin] was tested, and the “antibacterial activity (in words)” value (MRSA and MSSA; MRSA and MSSA) was “showed antibacterial activity”, the MIC (MRSA and MSSA) was 250 µg/mL (≈ 827 µM) and the MIC50 (MRSA; MRSA) was 250 µg/mL (≈ 827 µM). The MIC50 (MSSA; [2]) was 250 µg/mL (≈ 827 µM).
In the case of `COc1cc(O)c2c(c1)OC(c1ccc(O)cc1)CC2=O` (stereo not shown) [Sakranetin, sakranetin], the “antibacterial activity (in words)” value (MRSA and MSSA; MRSA and MSSA) is reported as “showed antibacterial activity”, the MIC (MRSA and MSSA; MRSA and MSSA, "in each case") is reported as 250 µg/mL (≈ 873 µM) and the MIC50 (MRSA; [1]) is reported as 125 µg/mL (≈ 437 µM). The MIC50 (MSSA; [2]) was over 250 µg/mL.

Reference: patent US6294526A, “Use of flavone derivatives for induction of β-lactam-sensitivity of MRSA” (priority 1998, dated 2001)
